# Experimental data from patent EP4813381A1, “PHARMACEUTICAL USE OF GUAIANE SESQUITERPENE DERIVATIVE” (Nanjing University Of Chinese Medicine, priority 2023, dated 2025).
# How the values were obtained:
# [1] = tested on: lupus nephritis; assay: Lupus nephritis MRL/lpr mice: urinary protein, Scr, BUN, urinary Kim-1 and β-MG; assay type: in vivo; set-up: Scr / BUN / Kim-1 / β-MG: unit not given here; conditions: oral 30 mg/kg, 8 weeks
# Method: RT Supermix for qPCR, Nanjing Vazyme Biotech Co., Ltd.; Urea Colorimetric Test Kit, Creatinine Colorimetric Test Kit, Nanjing Jiancheng Biotechnology Co., Ltd.; Urinary Kim-1 and β-MG Content ELISA Kits, Abcam. • Experimental animals: MRL/MpJ and MRL/lpr mice, female, 10 weeks old, purchased from GemPharmatech LLC. Production license number: SCXK(Su)2023-0009. […] They were acclimated for 7 days before use in experiments. […] Oral administration was performed continuously for 8 weeks. […] Aspirate the serum, aliquot it, and store at -70 °C for future use. After blood collection, euthanize mice by cervical dislocation. Open the abdominal cavity, remove kidneys, and dissect out perirenal fat and capsules. […] Store remaining tissues at -70 °C for future use. Serum Creatinine (Scr) and Blood Urea Nitrogen (BUN) Assay: […] Samples were added sequentially strictly according to the kit instructions, incubated at 37 °C, and measured for absorbance values using an enzyme-linked immunosorbent assay (ELISA) reader. The concentration levels of each indicator were calculated based on the standard curve.
# [2] = tested on: inflammatory factors (TNF, IL-6, IL-1); assay: Lupus nephritis MRL/lpr mice: Q-PCR of renal inflammatory factors; assay type: in vivo; conditions: kidney mRNA, oral 30 mg/kg, 8 weeks
# Method: Production license number: SCXK(Su)2023-0009. […] They were acclimated for 7 days before use in experiments.
# Oral administration was performed continuously for 8 weeks.
# Allow blood to stand at room temperature for 2 hours, then centrifuge at 3000 rpm for 20 minutes. Aspirate the serum, aliquot it, and store at -70 °C for future use. After blood collection, euthanize mice by cervical dislocation. Open the abdominal cavity, remove kidneys, and dissect out perirenal fat and capsules. […] Store remaining tissues at -70 °C for future use.
# Additional primer information is as follows: Table 19. Q-PCR Primer Information
# [3] = tested on: fibrosis-related factors (Acta2, Col1a1, Tgfb1); assay: CCl4 acute liver injury model in mice: Q-PCR of fibrosis-related factors in liver; assay type: in vivo, C57BL/6 mice; conditions: liver mRNA, 200 mg/kg
# Method: They were acclimated for 7 days before use in experiments. • Experimental Methods: Establishment of Acute Liver Injury Model in Mice and Group-Specific Drug Administration • Mice were randomly assigned to groups. One group was arbitrarily designated as the normal group, while the remaining groups served as model group, Compound 1 group, Hydrochloride 20 group, Fumarate 21 group, and Silibinin group, with 6 mice per group. Except for the normal group receiving 10 mL olive oil/kg via injection, all other mice received 0.5 mL CCl4 + 9.5 mL olive oil/kg body weight via intraperitoneal injection, maintaining a CCl4 to olive oil ratio of 1:19. Starting from day 1 of modeling, Compound 1, Hydrochloride 20, and Fumarate 21 were administered orally for 3 consecutive days. […] The blood was allowed to stand at room temperature for 2 hours, then centrifuged at 3000 rpm for 20 minutes. Serum was aspirated, aliquoted, and stored at -70 °C for future use. After blood collection, euthanize mice by cervical dislocation. Perform laparotomy to remove the liver. Rinse twice with pre-chilled PBS. Excise the left hepatic lobe tissue. […] Store remaining tissue at -70 °C for future use. • Serum AST and ALT Assay: Use 10 µL of each sample for testing. Determine mouse serum AST and ALT levels according to the operating manual. Measure absorbance at 510 nm using an enzyme-linked immunosorbent assay (ELISA) reader. Calculate sample concentration (U/L) based on the standard curve.
# Q-PCR Analysis: Tissue total RNA extraction, cDNA synthesis, and PCR amplification methods are identical to Example 4. Additional primer information is as follows:
# Data Statistics: All data are expressed as means ± standard error of the mean (S.E.M.). Differences were analyzed for significance using analysis of variance (ANOVA). For groups showing significant differences in ANOVA, one-way ANOVA followed by Dunnett's test was performed to compare intergroup differences.
# [4] = tested on: CCl4-induced liver injury; assay: CCl4 acute liver injury model in mice: serum ALT and AST; assay type: in vivo, C57BL/6 mice; conditions: 200 mg/kg (method: U/L)
# Source text: The drug of the present invention, prepared according to Example 2; Silybin, Shanghai Yuanye Biotechnology Co., Ltd.; Olive oil, Beijing […] Olive Oil Development Center; Analytical grade carbon tetrachloride (CCl4), Shantou Xilong Chemical Factory; Sodium carboxymethyl cellulose (CMC-Na), Guangdong Shantou Xilong Chemical Factory; RNA Isolater Total RNA Extraction Reagent, […] RT Supermix for qPCR, Nanjing Vazyme Biotech Co., Ltd.; AceQ qPCR SYBR Green Master Mix, Shanghai Yeasen Biotechnology Co., Ltd.; Aspartate Transaminase (AST/GOT) Colorimetric Test Kit, Alanine Transaminase (ALT/GPT) Colorimetric Test Kit, Wuhan Elabscience Biotechnology Co., Ltd. • Experimental animals: […] SCXK(Su)2019-002. […] They were acclimated for 7 days before use in experiments. • Experimental Methods: Establishment of Acute Liver Injury Model in Mice and Group-Specific Drug Administration • Mice were randomly assigned to groups. […] One hour after the final drug administration, blood was collected from the retinal venous plexus. […] Serum was aspirated, aliquoted, and stored at -70 °C for future use. After blood collection, euthanize mice by cervical dislocation. Perform laparotomy to remove the liver. Rinse twice with pre-chilled PBS. Excise the left hepatic lobe tissue. […] Store remaining tissue at -70 °C for future use. • Serum AST and ALT Assay: Use 10 μL of each sample for testing. Determine mouse serum AST and ALT levels according to the operating manual. Measure absorbance at 510 nm using an enzyme-linked immunosorbent assay (ELISA) reader. Calculate sample concentration (U/L) based on the standard curve. Data Statistics: All data are expressed as means ± standard error of the mean (S.E.M.). Differences were analyzed for significance using analysis of variance (ANOVA). For groups showing significant differences in ANOVA, one-way ANOVA followed by Dunnett's test was performed to compare intergroup differences.
# [5] = tested on: MDSCs; assay: Inhibition of MDSC chemotaxis (Transwell, Hepa1-6 tumor-conditioned medium); assay type: cell-based, mice; conditions: 12 h treatment, 24 h Transwell
# Method: Hepa1-6 mouse hepatocellular carcinoma cells were uniformly seeded into 6-well plates. After cells reached confluence, supernatant was aspirated, and 1-1.5 mL fresh medium was added to each well. Following 24 h culture, supernatant was collected, centrifuged at 1600 rpm for 5 min, aspirated, and filtered through a 0.22 µm membrane to obtain tumor-conditioned medium for subsequent use. Euthanize mice by cervical dislocation and immerse in 75% ethanol solution for 5 min. Under sterile conditions, remove the tibia, cut both ends of the bone, and aspirate the bone marrow into a 1 mL syringe. Repeat flushing into a 15 mL centrifuge tube. Centrifuge at 1600 rpm for 5 min to collect bone marrow cells. Wash twice with 1×PBS. Resuspend cells in complete RPMI 1640 medium containing cytokines GM-CSF (10 ng/mL) and IL-4 (10 ng/mL) to stimulate differentiation into MDSCs. Count cells, adjust density to 1×10^6 cells/mL, and uniformly seed into 24-well plates at 300 µL per well. […] Centrifuge at 1600 rpm for 5 min, remove supernatant, resuspend cells in 300 µL fresh medium, and place into Transwell chambers. Add 600 µL normal medium (control group) or tumor-conditioned medium (model group) to the lower chamber. Co-culture for 24 h.
# [6] = tested on: CCR2 mRNA; assay: CCR2 mRNA level in MDSCs (PCR); assay type: cell-based, mice; conditions: CCR2 mRNA levels in MDSCs, 2 h
# Method: Mice were euthanized by cervical dislocation and immersed in 75% ethanol solution for 5 min. Under sterile conditions, the tibia was removed, both ends of the bone were cut, and bone marrow was repeatedly flushed into a 15 mL centrifuge tube using a 1 mL syringe filled with culture medium. Centrifuge at 1600 rpm for 5 min to collect bone marrow cells. Wash twice with 1×PBS, then resuspend in RPMI 1640 complete medium containing GM-CSF (10 ng/mL) + IL-4 (10 ng/mL) and transfer to a cell culture dish to stimulate differentiation of bone marrow cells into MDSCs. Count cells and adjust density to 1 × 10^6 cells/mL in complete medium. Seed cells uniformly into 6-well plates at 2 mL per well. […] After incubation, collect cells into centrifuge tubes, centrifuge at 1600 rpm for 5 min, wash once with 1×PBS, and add 500 µL RNA extraction reagent to each tube. After centrifugation to obtain the pellet, add 20 µL DEPC-treated water to each tube to dissolve the pellet. Determine RNA concentration and reverse transcribe to cDNA. Add the cDNA, primers, and reverse transcriptase to a 96-well plate. Centrifuge at 4000 rpm for 5 min, then place in a PCR instrument for detection.
# [7] = physchem; conditions: water, 37 °C, thermodynamic from solid
# [8] = tested on: 4T1 cells; assay type: in vivo, BALB/c mice; conditions: 4T1, oral 40 µmol/kg/day, 3 weeks
# Method: 4T1 cells were cultured and expanded in vitro. […] A 100 µL aliquot of this suspension was injected subcutaneously into the left forelimb axilla of female BALB/c mice. […] Daily oral administration was performed for 3 weeks. During the treatment period, mouse body weight and tumor diameter were measured daily. At the end of the experiment, mice were euthanized by cervical dislocation, and tumors were removed for weighing. Tumor volume (TV) was calculated using the formula: TV = 1/2 × a × b^2, where a represents the longest diameter of the tumor and b represents the shortest diameter.
# [9] = Conversion rate of salt-form prodrugs to parent compound in HEPES buffer solution; assay type: physicochemical; conditions: conversion to Compound 83, HEPES buffer pH 7.4, 37 °C
# How it was run: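 Salt-form prodrug dissolved in water was mixed 1:1 with HEPES buffer pH 7.4 (or mouse serum) and incubated at 37°C. Aliquots were quenched with methanol and centrifuged, and supernatants taken at 1, 2, 4, 8 and 12 h were analysed by HPLC. Conversion was followed by peak areas.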
# [10] = Conversion rate of salt-form prodrugs to parent compound in mouse plasma; assay type: in vitro ADME; conditions: conversion to Compound 83, mouse plasma, 37 °C
smiles,measurement,setting,value
"CC(C)(O)c1coc(S(=O)(=O)NC(=O)Nc2c3c(cc4c2CCC4)CCC3)c1 [MCC950, reference compound]",24-hour urine protein level,[1],0.89±0.11
same,BUN,[1]; serum,12.08±2.01
same,Scr,[1]; serum,22.18±3.41
same,Kim-1,[1]; urine,0.53±0.06
same,β-MG,[1]; urine,15.41±0.39
same,Il1,[2],5.43±0.71
same,Il6,[2],9.52±0.84
same,Tnf,[2],4.33±0.52
"COc1cc(C2Oc3cc([C@H]4Oc5cc(O)cc(O)c5C(=O)[C@@H]4O)ccc3OC2CO)ccc1O (stereo partly shown) [Silybin, reference compound]",Acta2,[3],2.91±0.48
same,Col1a1,[3],1.84±0.17
same,Tgfb1,[3],1.11±0.08
same,ALT,[4],121.58±15.45
same,AST,[4],301.45±38.44
C=C1C(=O)O[C@H]2[C@H]1CCC(C)=C1CC[C@@](C)(OC(=O)NCCN3CCOCC3)[C@@H]12 [compound 78],Suppression Rate (%),[5]; 1 µM,29.0%
same,Suppression Rate (%),[5]; 10 µM,67.1%
same,CCR2 mRNA suppression rate in MDSCs (%),[6]; 1 µM,23.0%
same,CCR2 mRNA suppression rate in MDSCs (%),[6]; 10 µM,52.7%
C=C1C(=O)O[C@H]2[C@H]1CCC(C)=C1CC[C@@](C)(OC(=O)N3CCCCC3)[C@@H]12 [compound 83],Suppression Rate (%),[5]; 1 µM,29.4%
same,Suppression Rate (%),[5]; 10 µM,75.9%
same,solubility,[7],152 µg/mL
same,CCR2 mRNA suppression rate in MDSCs (%),[6]; 1 µM,17.0%
same,CCR2 mRNA suppression rate in MDSCs (%),[6]; 10 µM,70.0%
C=C1C(=O)O[C@H]2[C@H]1CCC(C)=C1CC[C@@](C)(OC(=O)NCCN3CCOCC3)[C@@H]12 [compound 99],antitumor effects,[8],no significant antitumor effects
CC1=C2CC[C@@](C)(OC(=O)N3CCCCC3)[C@@H]2[C@H]2OC(=O)[C@@H](CN(C)C)[C@@H]2CC1 [compound 102],antitumor effects,[8],no significant antitumor effects
same,Release rate,[9]; 1 h,6.8%
same,Release rate,[9]; 2 h,14.6%
same,Release rate,[9]; 4 h,24.8%
same,Release rate,[9]; 8 h,43.0%
same,Release rate,[9]; 12 h,51.8%
same,Release rate,[10]; 1 h,6.6%
same,Release rate,[10]; 2 h,14.0%
same,Release rate,[10]; 4 h,26.0%
same,Release rate,[10]; 8 h,42.4%
same,Release rate,[10]; 12 h,47.8%
